Values joined by “and” are separate entries in the source; they are usually repeats but may differ in a detail not shown here. Equal values may be shown once.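 Growth conditions: 96-well plates. Treatment: test compound, 48 hours, 5 concentrations. Analysis: linear interpolation between bracketing concentrations; unreached endpoints set to highest concentration. GI50 = concentration required for 50% inhibition of growth. TGI: concentration producing complete growth inhibition.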
Assays:
Test in all cases: DTP human tumour cell line panel, 48 h
K-562 leukemia = test system: K-562 leukemia
OVCAR-5 ovarian = test system: OVCAR-5 ovarian
HT29 colon = test system: HT29 colon
SNB-19 CNS = test system: SNB-19 CNS
SN12C renal = test system: SN12C renal
M14 melanoma = test system: M14 melanoma
RXF 393 renal = test system: RXF 393 renal
CAKI-1 renal = test system: CAKI-1 renal
T-47D breast = test system: T-47D breast
PC-3 prostate = test system: PC-3 prostate

SMILES	TGI (K-562 leukemia) [µM]	TGI (OVCAR-5 ovarian) [µM]	TGI (HT29 colon)	TGI (SNB-19 CNS)	TGI (SN12C renal) [µM]	TGI (M14 melanoma)	TGI (RXF 393 renal) [µM]	TGI (CAKI-1 renal) [µM]	GI50 (K-562 leukemia) [µM]	GI50 (OVCAR-5 ovarian) [µM]	GI50 (HT29 colon) [µM]	GI50 (SNB-19 CNS)	GI50 (SN12C renal) [µM]	GI50 (M14 melanoma) [µM]	GI50 (RXF 393 renal) [µM]	GI50 (CAKI-1 renal) [µM]	TGI (T-47D breast) [µM]	TGI (PC-3 prostate) [µM]	GI50 (T-47D breast) [µM]	GI50 (PC-3 prostate) [µM]
CCOC(=O)C1=C(NNC(=O)Cc2ccccc2)CSC1=Nc1ccccc1	> 100	> 100	> 100 µM	> 100 µM	> 100	> 100 µM	> 100	> 100												
O=c1c2cc(Br)ccc2nc(-c2ccccc2Cl)n1NCC1(O)OCC(O)C(O)C1O (stereo not drawn)	> 100	> 100	> 100 µM	> 100 µM	> 100	> 100 µM	> 100	> 100												
N#C/C(=C1\NN=C(N)C(c2ccc(Cl)cc2)=C1O)c1ccc(Cl)cc1	> 100	> 100	> 100 µM	> 100 µM	> 100	> 100 µM	> 100	> 100												
O=C(O)CCSCCCN1C(=O)c2ccccc2C1=O	> 100	> 100	> 100 µM	> 100 µM	> 100		> 100													
[C-]#[O+].[C-]#[O+].[C-]#[O+].[C-]#[O+].[Ir].[Ir].[O-]c1ccc2ccccc2c1C=Nc1ccc(N=Cc2c([O-])ccc3ccccc23)cc1	> 100	> 100	> 100 µM	> 100 µM	> 100	> 100 µM	> 100	> 100	40.1	> 100	> 100	63.6 µM	> 100	> 100	> 100	> 100				
COc1ccc(C2=NN(C(=O)COc3ccc(Cl)cc3)C(O)(c3ccc(Cl)cc3)C2)cc1 (stereo not drawn)	> 100	> 100	> 100 µM	> 100 µM	> 100	> 100 µM		> 100												
CCc1ccccc1N1CCN(C(=O)c2cc(OC)c(OC)c(OC)c2)CC1	39.4	> 100	0.617 µM	> 56 µM	> 100	2.6 µM		43									67.9	> 9.26		
CC1=CCC(OC(=O)C(C)(C)CCC(O)(C(=O)OC2(C(C)C)CCC3(C)OC3C2)C(C)C)(C(C)C)CC1 (stereo not drawn)		1.39	1.75 µM	5.43 µM	0.532	1.46 µM	1.25	1.05		0.695	0.606	1.14 µM	0.124	0.654	0.587	0.255	1.24	0.987	0.152	0.281
CS(=O)(=O)OCCn1cnc2nc(NC(=O)c3ccccc3)[nH]c(=O)c21	> 100	> 100	> 100 µM	> 100 µM	> 100	> 100 µM	> 100	> 100												
CC(=O)Nc1ccc(/C=N\N2C(=O)c3ccccc3C2=O)cc1	> 100	> 100	> 100 µM	> 100 µM	> 100	> 100 µM	> 100	> 100												
CN(C)c1ccc(-c2cc(-c3ccc(Nc4nc(Nc5ccccc5)nc(Nc5ccc(Cl)cc5)n4)cc3)nc(N)n2)cc1	11.4	91.5	12.7 µM	69.2 µM	42.2	17.6 µM	12.9	7.76	2.61	16.1	3.27	13.5 µM	7.52	3.65	2.78	1.61	17.9		3.04	
COc1cc2c3c(n(CCCNCC(OC)OC)c(=O)c2cc1OC)-c1cc2c(cc1C3=O)OCO2	> 46.8	37.8	32.2 µM	> 100 µM		> 37.2 µM	21.6	17.2	0.91	16.9	4.99	10.2 µM		0.345	3.84	0.219		40.6		2.35
COc1ccc(-c2cc(-c3ccccc3)nc(N3CCN(CCNc4ccnc5cc(Cl)ccc45)CC3)n2)cc1		4.99		13.2 µM	3.34		2.27	12.1		1.92		3.19 µM	1.64		0.842	2.97	3.73		1.55	
CC1CC2C(=O)N(c3ccccc3)C(=O)C2c2c1c1ccccc1n2Cc1ccccc1 (stereo not drawn)	> 100	> 100	> 100 µM		> 100	> 100 µM		> 100												
O=C(/C=C/c1ccc(Cl)c(Cl)c1)c1ccc(F)cc1	18.7	55.2	27.6 µM	32.7 µM	52.2	30.5 µM		60.8												
CCN1CCN(CC(=O)Nc2nc3ccc(NCc4ccc(Cl)cc4)cc3s2)CC1	4.14		4.61 µM	10.7 µM	11.9	3.63 µM	3.05	5.19	1.63		2.02	3.12 µM	2.94	1.86	1.54	2.1	5.8		1.94	
CC1CC(c2cccc3c2OCO3)=Nc2ccccc2S1 (stereo not drawn)	> 100	> 100	> 100 µM	> 100 µM	> 100	> 100 µM	> 100	> 100												
CCCCCCC#Cc1ccccc1C#CCO	> 100	> 100		31.7 µM	39.7	74.9 µM	32.9	33.2	28.8	38.7		16.3 µM	19.4	28.4	16.6	14.6	35.1	95.2	16.3	25.4
CC1=C(C(=O)Nc2cccc(Cl)c2)C(c2ccc([N+](=O)[O-])cc2)C(C(=O)Nc2cccc(Cl)c2)=C(C)N1	> 100	> 100	35 µM	> 100 µM	75.8	42.1 µM	58.7													
CC(/C(=N/NC(=O)C(N)=O)c1c(Cl)ccc(Cl)c1O)C1(O)C(=O)Nc2ccccc21 (stereo not drawn)	> 100	> 100	> 100 µM	> 100 µM	> 100	> 100 µM	> 100	> 100												

SMILES	TGI (K-562 leukemia) [µM]	TGI (OVCAR-5 ovarian) [µM]	TGI (HT29 colon)	TGI (SNB-19 CNS)	TGI (SN12C renal) [µM]	TGI (M14 melanoma)	TGI (RXF 393 renal) [µM]	TGI (CAKI-1 renal) [µM]	GI50 (K-562 leukemia) [µM]	GI50 (OVCAR-5 ovarian) [µM]	GI50 (HT29 colon) [µM]	GI50 (SNB-19 CNS)	GI50 (SN12C renal) [µM]	GI50 (M14 melanoma) [µM]	GI50 (RXF 393 renal) [µM]	GI50 (CAKI-1 renal) [µM]	TGI (T-47D breast) [µM]	TGI (PC-3 prostate) [µM]	GI50 (T-47D breast) [µM]	GI50 (PC-3 prostate) [µM]
Cn1ccc2c(c1=O)C(=O)c1nccc3c1c-2nc1ccccc13		3.46		3.03 µM	3.03	3.52 µM	2.95	2.85		1.92		1.59 µM	1.56	1.84	1.49	1.44	3.74	3.64	1.8	1.69
CC(=O)NCCSC(=O)c1ccccc1		0.527	> 78.2 µM	15.2 µM	0.492	0.242 µM	0.958	0.239										4.07		
NC(=NC1CCCCCCC1)c1ccc(N2CCN(c3ccc(C(N)=NC4CCCCCCC4)cc3)CC2)cc1	> 100	39	23.1 µM	27.6 µM	69.3	> 100 µM		63.1	35.4	14.9	4.88	13.5 µM	7.62	30.8		23.1	> 100	46.8	25.8	22.6
C=C1C(=O)OC2C1CC[C@H](C)C13OC(=O)CC1[C@@]23C (stereo partly drawn)	> 100	> 100	> 100 µM	> 100 µM	> 100		> 100	> 100												
CCN(CCNc1ccc(C)c2sc3cc(Cl)ccc3c(=O)c12)CC(C)O (stereo not drawn)	3.41		3.17 µM	3.66 µM	10.5	3.14 µM		2.49	1.82		1.65	1.65 µM	2.76	1.75		0.643	4.14	3.31	1.76	1.74
O=c1c2cccc3cccc(c4oc5c6cccc7cccc(c(=O)c5c14)c76)c32		> 31.6	19.6 µM	18.6 µM	18.2	17.7 µM	16.6	45.9												
COc1ccc(-c2cnnn2-c2cc(OC)c3c(c2)OCO3)cc1	> 100	> 100		> 100 µM	> 100	> 100 µM		> 100	0.0417	0.502	0.0454		0.658	0.0537		0.118		> 100		0.167
OCC(O)C(OC1OC(CO)C(O)C(O)C1O)c1nn(-c2ccccc2)c2nc3cc(Cl)c(Cl)cc3cc12 (stereo not drawn)	> 100	> 100	> 100 µM	> 100 µM	> 100	> 100 µM	> 100													
O=C1CC(c2ccc3c(c2)OCO3)Nc2cc3c(cc21)OCO3 (stereo not drawn)	> 100	> 100	22.3 µM	> 100 µM	> 100		4.44	> 100	0.358	2.3	0.374	0.687 µM	0.788		0.343	0.527		> 100		0.464
COC(C(=O)C(O)C(C)O)C1Cc2cc3cc(OC4CC(OC(C)=O)C(OC5CC(O)C(OC)C(C)O5)C(C)O4)cc(O)c3c(O)c2C(=O)C1OC1CC(OC2CC(OC3CC(C)(O)C(OC(=O)C(C)C)C(C)O3)C(O)C(C)O2)C(O)C(C)O1 (stereo not drawn)			0.991 µM and 3.48 µM and 2.1 µM	53.9 µM and > 100 µM		0.257 µM and 0.0292 µM						0.0897 µM and 0.01 µM								
COCC1N=C(c2cc(OC)c(OC)c(OC)c2-c2cc3c(cc2C2OCCCO2)OCO3)O[C@H]1c1ccccc1 (stereo partly drawn)	> 100	> 100	> 100 µM	> 100 µM	> 100	> 100 µM	> 100	> 100												
Nc1ccn(CCO)c(=O)n1	> 100	> 100	> 100 µM		> 100	> 100 µM	> 100	> 100												
O=C1OC(CC(=O)c2ccc(Cl)cc2Cl)C(Cl)=C1Cl (stereo not drawn)	> 76.7	> 62.8	36 µM	> 76.6 µM	> 31.6	> 91.9 µM	36.3	> 70.3												
CCCCCCCCCCC(O)[C@H]1CCC(C2CC[C@H]([C@H](O)CCCCCCCCCCC(O)CC3=CC(C)OC3=O)O2)O1 (stereo partly drawn)	4.55	9.11	2.88 µM and 14.4 µM	6.96 µM and 32.1 µM			5		< 0.01	2.58		2.05 µM	1.76	7		4.09		3.73		
Fc1cccc2cc3ccc4cccc5ccc(c12)c3c45	> 100	> 100	> 100 µM	> 100 µM	> 100	> 100 µM	> 100	> 100												
N#Cc1cccc(C(=O)Nc2cccc(NC(=O)c3cccc(C#N)c3)c2)c1	> 100	> 100	> 100 µM	> 100 µM	> 100	> 100 µM		> 100	> 100	> 100	> 100	> 100 µM	34.1	> 100		6.95	> 100	> 100	> 100	77.6
CCCCCCCCC(=O)N(C)C1C2CN3CCC(O2)C13 (stereo not drawn)	> 100	> 100	> 100 µM	> 100 µM	> 100	> 100 µM	> 100	> 100												
Cc1nn(-c2ccccc2)c2c1CC(=O)Nc1ccccc1-2	0.721	> 100			> 100	> 100 µM	5.85	> 100	0.044		0.0906			0.188		0.346				0.279
Cc1ccc(NC(=O)c2cc3ccccc3c(N=Nc3ccccc3O)c2O)c(C)c1	> 100	19.5	13.8 µM	6.61 µM		12.7 µM	19.4	11.4										10		

From PubChem BioAssay (NCI)
